{
  "source": "patent US12383527B2",
  "about": "“Methods for treating triple negative breast cancer using salvianolic acid B” (HOWARD UNIVERSITY, priority 2018, dated 2025)",
  "key": {"MDA tumor xenografts [1]": {"tested_on": "MDA tumor xenografts", "test": "TUNEL assay of apoptotic cells in MDA tumor xenografts", "format": "in vivo, athymic nude mice", "conditions": "doxorubicin 4 mg/kg every four weeks; untreated tumors 3.1±1.8; P<0.05", "experimental": "(§1) Human tumor xenografts in athymic nude mice. […] The animal protocol was approved by the Howard University Animal Care and Use Committee. Four-week-old female athymic nude mice (Nu/Nu) were obtained from Harlan Sprague Dawley (Indianapolis, IN). All mice were provided the Harlan Teklad #2018 Global 18% protein rodent diet and water ad libitum. Mice were housed in temperature-controlled rooms (74±2° F.) with a 12-hour alternating light-dark cycle. MDA cells (3×10^6/50 μL/spot) were subcutaneously injected into the both sides of lower back of mice using a 27-gauge needle. […]\nApoptotic cells in MDA tumor xenografts were also analyzed by a terminal deoxynucleotidyl transferase-mediated dUTP nick end labeling (TUNEL) assay using the TdT-FragEL DNA Fragmentation Detection Kit (EMD Millipore, Burlington, MA) as previously described (Li H, et al., “Cellular uptake and anticancer activity of salvianolic acid B phospholipid complex loaded nanoparticles in head and neck cancer and precancer cells,” Colloids Surf B Biointerfaces. 2016; 147: 65-72). […]"}, "cyclin A": {"tested_on": "cyclin A", "test": "Western blot of cyclin A expression in MDA and MCF-7 cells", "format": "cell-based, human", "conditions": "doxorubicin 1 μM, 24 hours", "experimental": "(§2) The expression of two cell cycle-related proteins—cyclin A and cyclin B1—was checked by Western blot. The expression of cyclin A and cyclin B1 was normalized by the expression of the internal control β-actin (lower panel). The cells were treated with 50 μM and 100 μM Sal-B, respectively, for 24 hours. Doxorubicin (0.1 μM and 1 μM) was used as a control. […] The results may be explained by that the cell cycle progression is controlled by a large set of molecules, although cyclin B1 is a key component in the control of cell cycle progression from G2 to M phase.\nThe immunohistochemical results were consistent with those from Western blotting (FIG. 7, panel A). Western blot analysis was used to determine the expression of apoptosis-related proteins Bcl-XL, survivin, caspase-3 and caspase-8 (FIG. 7, panel A). β-actin was used as an internal control for Western blotting. The MCD-7 and MDA cells were treated with Sal-B (50 μM and 100 μM) and doxorubicin (0.1 μM and 1 μM), respectively, for 24 hours. Proteins were extracted from the cells with RIPA lysis buffer (Santa Cruz Biotechnology, Santa Cruz, CA) and the protein concentrations were quantified with Bio-Rad protein quantification kit. Whole-cell proteins were separated on 8% SDS-polyacrylamide gel, transferred to the polyvinylidene difluoride membrane (Bio-Rad), and then probed with the indicated primary antibodies overnight at 4° C. […]"}, "ER-α": {"tested_on": "ER-α", "test": "Western blot of ER-α expression in MCF-7 cells", "format": "cell-based, human", "conditions": "doxorubicin at the high dose (1 μM)"}, "MDA tumor xenografts [2]": {"tested_on": "MDA tumor xenografts", "test": "Human tumor xenografts in athymic nude mice, tumor weight", "format": "in vivo", "conditions": "doxorubicin 4 mg/kg every four weeks, intraperitoneal; day 37; mean±SD; untreated control 0.81±0.12 g", "experimental": "Human tumor xenografts in athymic nude mice. […] The animal protocol was approved by the Howard University Animal Care and Use Committee. Four-week-old female athymic nude mice (Nu/Nu) were obtained from Harlan Sprague Dawley (Indianapolis, IN). All mice were provided the Harlan Teklad #2018 Global 18% protein rodent diet and water ad libitum. Mice were housed in temperature-controlled rooms (74±2° F.) with a 12-hour alternating light-dark cycle. MDA cells (3×10^6/50 μL/spot) were subcutaneously injected into the both sides of lower back of mice using a 27-gauge needle. On day 10 after cell implantation, the mice with tumors (˜5 mm in diameter) were randomly divided into Sal-B treated, doxorubicin treated, and untreated groups (five mice per group), and were administrated Sal-B (80 mg/kg, three times per week), doxorubicin (4 mg/kg, every four weeks) and 0.9% saline (50 μl, three times per week), respectively, by intraperitoneal injection for a total of 37 days. […] All mice were sacrificed on day 37."}, "cyclin B1": {"tested_on": "cyclin B1", "test": "Western blot of cyclin B1 expression in MDA and MCF-7 cells", "format": "cell-based, human", "conditions": "doxorubicin 1 μM, 24 hours", "experimental": "as §2\n(§3) The immunohistochemical results were consistent with those from Western blotting (FIG. 7, panel A). Western blot analysis was used to determine the expression of apoptosis-related proteins Bcl-XL, survivin, caspase-3 and caspase-8 (FIG. 7, panel A). β-actin was used as an internal control for Western blotting. The MCD-7 and MDA cells were treated with Sal-B (50 μM and 100 μM) and doxorubicin (0.1 μM and 1 μM), respectively, for 24 hours. Proteins were extracted from the cells with RIPA lysis buffer (Santa Cruz Biotechnology, Santa Cruz, CA) and the protein concentrations were quantified with Bio-Rad protein quantification kit. Whole-cell proteins were separated on 8% SDS-polyacrylamide gel, transferred to the polyvinylidene difluoride membrane (Bio-Rad), and then probed with the indicated primary antibodies overnight at 4° C. Washed blots were then incubated with horseradish peroxidase-conjugated anti-rabbit, anti-mouse, or anti-goat antibody (Santa Cruz Biotechnology), respectively, for one hour at room temperature. Blots were developed and visualized with ECL detection system (Bio-Rad)."}, "Bcl-xL [3]": {"tested_on": "Bcl-xL", "test": "Immunohistochemical staining of Bcl-xL in MDA tumor xenografts", "format": "in vivo, athymic nude mice", "conditions": "doxorubicin 4 mg/kg every four weeks; versus untreated tumors; P<0.05", "experimental": "as §1\n(§4) Immunohistochemical staining was performed as described previously (Hao Y, et al., “Enforced expression of miR-101 inhibits prostate cancer cell growth by modulating the COX-2 pathway in vivo,” Cancer Prev Res (Phila), 2011; 4: 1073-1083). […] For the quantification, ten high-magnification (40×) fields were randomly selected from each slide of tumors and the positive cells were counted. The protein expression was expressed as the average number of positive cells per high magnification field."}, "survivin [4]": {"tested_on": "survivin", "test": "Western blot of survivin expression in MDA and MCF-7 cells", "format": "cell-based, human", "conditions": "doxorubicin 0.1 μM and 1 μM, 24 hours", "experimental": "as §3"}, "MCF-7 cells": {"tested_on": "MCF-7 cells", "test": "Luciferase assay (bioluminescent cell viability)", "format": "cell-based, human", "conditions": "24 hours", "experimental": "(§5) Cell lines and culture. MCF-7 and MDA human breast cancer cell lines stably transfected with firefly luciferase gene were purchased from Caliper Life Sciences (Hanover, MD). MCF-7 cells were cultured in DMEM medium (Invitrogen, Carlsbad, CA) and MDA cells were grown in DMEM/F-12 (1:1) medium (Invitrogen). Both media were supplemented with 10% fetal bovine serum (Invitrogen) and antibiotic-antimycotic mixture (100 IU/ml penicillin and 100 μg/ml streptomycin; Cellgro). The cells were maintained at 37° C. in 5% CO2. All experiments were performed when the cells were in the logarithmic phase of growth. Luciferase assay. The MDA cell line and the hormone receptor-positive MCF-7 cell line were utilized to test the effectiveness of Sal-B and doxorubicin on cancer cell viability. Both cell lines had been stably transfected and expressed the firefly luciferase gene. The bioluminescent signal intensity reflects the cell metabolic activity, being highly correlated with the cell viability. Cell viability was evaluated using the sensitive bioluminescent optical imaging. The cells (10,000 per well) were seeded in flat-bottomed 96-well plates in the above-identified medium with 10% fetal bovine serum and allowed to grow overnight. The old medium was then replaced with fresh medium containing different concentrations of Sal-B (50, 100, 150, and 200 μM) or doxorubicin (0.1, 0.2, 0.5, and 1 μM). The cells were further cultured for 24 hours and D-luciferin was added to each well and mixed gently (final concentration of 150 μ/ml). The signal was measured with the Xenogen IVIS 200 imaging system (Caliper Life Sciences, Hopkinton, MA, USA). The system was equipped with a highly sensitive, cooled charge-coupled device (CCD) camera and a light-tight specimen box. Imaging and quantification of signals was controlled by the acquisition and analysis software Living Image 3.0. The bioluminescent signal from the cells in each well was expressed as total flux (photons per second (p/s)). At least five replicates were performed in each experiment, and each experiment was repeated at least three times. The representative data are presented."}, "MDA-MB-231 cells": {"tested_on": "MDA-MB-231 cells", "test": "Luciferase assay (bioluminescent cell viability)", "format": "cell-based, human", "conditions": "MDA cells, 24 hours", "experimental": "as §5"}, "[5]": {"tested_on": "proliferating cell nuclear antigen (PCNA)", "test": "Immunohistochemical staining of PCNA in MDA tumor xenografts", "format": "in vivo, athymic nude mice", "conditions": "doxorubicin 4 mg/kg every four weeks; versus untreated; P<0.05", "experimental": "as §1, §4"}, "ceramides": {"tested_on": "ceramides", "test": "Immunohistochemistry of ceramides in MDA tumor xenografts", "format": "in vivo, athymic nude mice", "conditions": "doxorubicin 4 mg/kg every four weeks; untreated control 2.3±0.7; P<0.05", "experimental": "as §1\nImmunohistochemical staining was performed as described previously (Hao Y, et al., “Enforced expression of miR-101 inhibits prostate cancer cell growth by modulating the COX-2 pathway in vivo,” Cancer Prev Res (Phila), 2011; 4: 1073-1083). […] For the quantification, ten high-magnification (40×) fields were randomly selected from each slide of tumors and the positive cells were counted. The protein expression was expressed as the average number of positive cells per high magnification field. […]"}, "Bcl-xL [6]": {"tested_on": "Bcl-xL", "test": "Western blot of Bcl-xL expression in MDA and MCF-7 cells", "format": "cell-based, human", "conditions": "doxorubicin 0.1 μM and 1 μM, 24 hours", "experimental": "as §3"}, "survivin [7]": {"tested_on": "survivin", "test": "Immunohistochemical staining of survivin in MDA tumor xenografts", "format": "in vivo, athymic nude mice", "conditions": "doxorubicin 4 mg/kg every four weeks; versus untreated group", "experimental": "as §1, §4"}},
  "data": [
    {"compound": "COc1cccc2c1C(=O)c1c(O)c3c(c(O)c1C2=O)C[C@@](O)(C(=O)CO)C[C@@H]3O[C@H]1C[C@H](N)[C@H](O)[C@H](C)O1", "note": "[doxorubicin, reference compound]", "values": [
      {"measurement": "number of apoptotic cells (TUNEL)", "setting": "MDA tumor xenografts [1]", "value": "9.0±2.1"},
      {"measurement": "cyclin A expression (normalized to β-actin)", "setting": "cyclin A; MCF-7 cells", "value": "reduction"},
      {"measurement": "cyclin A expression (normalized to β-actin)", "setting": "cyclin A; MDA cells", "value": "reduction"},
      {"measurement": "ER-α protein level (normalized to β-actin)", "setting": "ER-α", "value": "decreased"},
      {"measurement": "average tumor weight", "setting": "MDA tumor xenografts [2]", "value": "0.34 ± 0.09", "unit": "g"},
      {"measurement": "cyclin B1 expression (normalized to β-actin)", "setting": "cyclin B1; MCF-7 cells", "value": "reduction"},
      {"measurement": "cyclin B1 expression (normalized to β-actin)", "setting": "cyclin B1; MDA cells", "value": "reduction"},
      {"measurement": "expression of Bcl-xL in tumors", "setting": "Bcl-xL [3]", "value": "decreased expression"},
      {"measurement": "survivin protein expression", "setting": "survivin [4]; MCF-7 cells", "value": "downregulated"},
      {"measurement": "survivin protein expression", "setting": "survivin [4]; MDA cells", "value": "downregulated"},
      {"measurement": "cytotoxicity at 0.5 µM", "setting": "MCF-7 cells; Homo sapiens, MCF7, MCF-7 cells, doxorubicin 0.5 μM, read-out: reduction of cell viability", "value": "~67", "unit": "%"},
      {"measurement": "further reduction of cell viability versus 0.5 μM", "setting": "MCF-7 cells; MCF-7 cells, doxorubicin 1 μM", "value": "No further reduction"},
      {"measurement": "effect on cell viability, MCF-7 cells relative to MDA cells", "setting": "MCF-7 cells; doxorubicin 1 μM", "value": "approximately two-fold"},
      {"measurement": "cytotoxicity at 0.5 µM", "setting": "MDA-MB-231 cells; Homo sapiens, MDA-MB-231, doxorubicin 0.5 μM, read-out: reduction of cell viability", "value": 25, "unit": "%"},
      {"measurement": "further reduction of cell viability versus 0.5 μM", "setting": "MDA-MB-231 cells; doxorubicin 1 μM", "value": "No further reduction"},
      {"measurement": "PCNA levels in tumor xenografts", "setting": "[5]", "value": "higher in untreated MDA tumor xenografts"},
      {"measurement": "ceramide levels in tumor xenografts (ceramide positive cells counted)", "setting": "ceramides", "value": "6.2±1.3"},
      {"measurement": "Bcl-xL protein expression", "setting": "Bcl-xL [6]; MCF-7 cells", "value": "downregulated"},
      {"measurement": "Bcl-xL protein expression", "setting": "Bcl-xL [6]; MDA cells", "value": "downregulated"},
      {"measurement": "survivin level in tumors", "setting": "survivin [7]", "value": "decreasing"}
    ]}
  ]
}
